Where “and” joins values, the source holds several entries; their conditions need not be identical. Identical values can stand only once.
Biological target: T1, PfCRT^Dd2_F145I (Plasmodium falciparum, UniProt Q8IBZ9, A220S/F145I/I356T/K76T/M74I/N326S/N75E/Q271E/R371I)
T1 construct: expressed in transfected cells; host or cells: Xenopus laevis oocytes injected with in vitro transcribed RNA (pSP64T)
T1 sequence (Q8IBZ9 1-424 M74I/N75E/K76T/F145I/A220S/Q271E/N326S/I356T/R371I): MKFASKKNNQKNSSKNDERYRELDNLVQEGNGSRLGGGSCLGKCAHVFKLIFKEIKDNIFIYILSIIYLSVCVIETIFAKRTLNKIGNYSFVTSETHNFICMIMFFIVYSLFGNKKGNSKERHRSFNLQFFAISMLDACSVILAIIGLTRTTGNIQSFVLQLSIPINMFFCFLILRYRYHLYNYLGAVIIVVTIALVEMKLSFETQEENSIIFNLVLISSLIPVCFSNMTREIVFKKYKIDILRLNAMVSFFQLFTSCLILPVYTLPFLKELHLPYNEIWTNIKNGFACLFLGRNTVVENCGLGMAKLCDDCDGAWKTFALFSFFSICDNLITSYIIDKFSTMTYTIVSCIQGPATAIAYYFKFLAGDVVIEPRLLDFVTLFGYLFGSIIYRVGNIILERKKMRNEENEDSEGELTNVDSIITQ
Experiment: Competition kinetics of drug transport (radiolabeled substrate plus cold inhibitor), PfCRT^Dd2_F145I-expressing oocytes
Type: cell-based
Protocol: To further characterize the kinetic relationship between CQ and PPQ, we performed a series of competition reactions. To this end, water-injected oocytes and PfCRT-expressing oocytes were incubated in medium containing one of seven concentrations of radio-labeled CQ and one of six concentrations of cold PPQ for 60 min before the amount of radio-labeled CQ uptake was determined. The rate of PfCRT-mediated CQ uptake was calculated for each condition by subtracting the corresponding value obtained for water-injected oocytes from those of PfCRT-expressing oocytes. The results were analyzed as a function of the CQ concentration (Fig 4A) and 16 different models of substrate competition were globally fit to the data by the least-squares method, using Python. The models were ranked, according to their Akaike information criterion difference (ΔAICC) and their Akaike weight (Fig 4B), with the most plausible model being the one with the lowest AICC (ΔAICC = 0) and the highest Akaike weight.
A complementary set of experiments was undertaken to investigate the kinetic mechanism by which PfCRT^Dd2_F145I accepts CQ and PPQ (Fig 6). […] These included a global fit of the substrate competition data to the 16 kinetic models (Fig 6), analysis of the secondary plots (Vmax,app and Vmax,app/KM,app as a function of the inhibitor concentration) (Fig 7A), a fractional velocity plot analysis (Fig 7B) and a comparison of the experimental data with the modelled data using the noncompetitive inhibition equation (Fig 7C to 7F). […] The fractional velocity plot illustrated the partial character of the noncompetitive inhibition mechanism by yielding a partiality factor β^CQ = 0.31 ± 0.04, by which PPQ reduces the transport velocity of CQ (Fig 7B). […] A 3D model of the kinetics between PfCRT^Dd2_F145I, CQ and PPQ, and analyses of the residuals as a function of substrate and inhibitor concentrations confirmed that the model was also an appropriate explanation for the mutant transporter (Fig 7C to 7F).
Drug transport assays were performed as previously described. Briefly, measurements of radiolabeled drug uptake were made over 1 h, unless otherwise specified. […] Where specified, one or more unlabeled drugs were also present at the indicated concentrations. The direction of drug transport in the assays is from the extracellular medium (pH 6) into the oocyte cytosol (pH 7.2), which corresponds to the efflux of CQ or PPQ from the acidic digestive vacuole (pH 5.2) into the parasite cytosol (pH 7.2). The uptake assays were terminated by removing the oocytes from the reaction medium and washing them three times with 2 mL of ice-cold ND96 buffer. Each oocyte was transferred to a separate scintillation vial and lysed by the addition of 200 μL of a 5% SDS solution. The radioactivity in the sample was measured using a liquid scintillation analyser Tri-Carb 4910 TR (PerkinElmer). Water-injected oocytes were analyzed in parallel as a negative control. The buffer from each condition was measured in duplicate in parallel to each experiment to transform counts per minute into pmol of drug. Drug uptake attributable to PfCRT was determined by subtracting the background uptake from water-injected oocytes from that of PfCRT-expressing oocytes. In all cases, at least three independent experiments were performed on oocytes from different frogs, and for each condition in an experiment, measurements were made from 10 oocytes per treatment.
The following equations were adopted from Segel (1993), and the reader is referred to that text for the assumptions made in the author’s approach in the derivation of each equation [31]. The concentration of substrate is denoted as [S1] and the concentration of the inhibiting substrate is denoted as [S2]. KS1 and KS2 are the dissociation constants for the respective substrate-protein complexes.
Analyses of the kinetic data were performed using SigmaPlot version 13.0 and Python. […]

Clc1ccc2c(N3CCN(CCCN4CCN(c5ccnc6cc(Cl)ccc56)CC4)CC3)ccnc2c1 [PPQ, piperaquine]
PfCRTDd2_F145I-mediated PPQ transport (10 µM PPQ, 0 µM CQ): 11.21 pmol oocyte-1 h-1 and 11.88 pmol oocyte-1 h-1 and 9.04 pmol oocyte-1 h-1 | PfCRTDd2_F145I-mediated PPQ transport (10 µM PPQ, 50 µM CQ): 9.4 pmol oocyte-1 h-1 and 8.02 pmol oocyte-1 h-1 and 11.57 pmol oocyte-1 h-1 | PfCRTDd2_F145I-mediated PPQ transport (10 µM PPQ, 125 µM CQ): 7.93 pmol oocyte-1 h-1 and 10.99 pmol oocyte-1 h-1 and 8.58 pmol oocyte-1 h-1 | PfCRTDd2_F145I-mediated PPQ transport (10 µM PPQ, 200 µM CQ): 8.51 pmol oocyte-1 h-1 and 7.12 pmol oocyte-1 h-1 and 10.43 pmol oocyte-1 h-1 | PfCRTDd2_F145I-mediated PPQ transport (10 µM PPQ, 400 µM CQ): 7.41 pmol oocyte-1 h-1 and 6.45 pmol oocyte-1 h-1 | PfCRTDd2_F145I-mediated PPQ transport (50 µM PPQ, 25 µM CQ): 33.88 pmol oocyte-1 h-1 and 40.73 pmol oocyte-1 h-1 and 51.89 pmol oocyte-1 h-1 | PfCRTDd2_F145I-mediated PPQ transport (50 µM PPQ, 50 µM CQ): 40.89 pmol oocyte-1 h-1 and 44.12 pmol oocyte-1 h-1 and 39.8 pmol oocyte-1 h-1 | PfCRTDd2_F145I-mediated PPQ transport (50 µM PPQ, 125 µM CQ): 36.42 pmol oocyte-1 h-1 and 31.75 pmol oocyte-1 h-1 and 38.13 pmol oocyte-1 h-1 | PfCRTDd2_F145I-mediated PPQ transport (50 µM PPQ, 400 µM CQ): 17.03 pmol oocyte-1 h-1 and 21.16 pmol oocyte-1 h-1 | PfCRTDd2_F145I-mediated PPQ transport (100 µM PPQ, 0 µM CQ): 60.49 pmol oocyte-1 h-1 and 74.22 pmol oocyte-1 h-1 and 56.91 pmol oocyte-1 h-1 | PfCRTDd2_F145I-mediated PPQ transport (100 µM PPQ, 25 µM CQ): 59.02 pmol oocyte-1 h-1 and 57.16 pmol oocyte-1 h-1 and 56.63 pmol oocyte-1 h-1 | PfCRTDd2_F145I-mediated PPQ transport (100 µM PPQ, 50 µM CQ): 63 pmol oocyte-1 h-1 and 53.26 pmol oocyte-1 h-1 and 51.28 pmol oocyte-1 h-1 | PfCRTDd2_F145I-mediated PPQ transport (100 µM PPQ, 125 µM CQ): 52.64 pmol oocyte-1 h-1 and 47.96 pmol oocyte-1 h-1 and 53 pmol oocyte-1 h-1 | PfCRTDd2_F145I-mediated PPQ transport (100 µM PPQ, 200 µM CQ): 45.31 pmol oocyte-1 h-1 and 44.84 pmol oocyte-1 h-1 and 60.71 pmol oocyte-1 h-1 | PfCRTDd2_F145I-mediated PPQ transport (100 µM PPQ, 400 µM CQ): 44.06 pmol oocyte-1 h-1 and 56.54 pmol oocyte-1 h-1 | PfCRTDd2_F145I-mediated PPQ transport (200 µM PPQ, 25 µM CQ): 102.24 pmol oocyte-1 h-1 and 78.79 pmol oocyte-1 h-1 and 91.29 pmol oocyte-1 h-1 | PfCRTDd2_F145I-mediated PPQ transport (200 µM PPQ, 50 µM CQ): 94.74 pmol oocyte-1 h-1 and 73.08 pmol oocyte-1 h-1 and 99.27 pmol oocyte-1 h-1 | PfCRTDd2_F145I-mediated PPQ transport (200 µM PPQ, 125 µM CQ): 78.46 pmol oocyte-1 h-1 and 108.53 pmol oocyte-1 h-1 and 73.37 pmol oocyte-1 h-1 | PfCRTDd2_F145I-mediated PPQ transport (200 µM PPQ, 400 µM CQ): 85.32 pmol oocyte-1 h-1 and 58.78 pmol oocyte-1 h-1 | PfCRTDd2_F145I-mediated PPQ transport (300 µM PPQ, 0 µM CQ): 115.45 pmol oocyte-1 h-1 and 117.23 pmol oocyte-1 h-1 | PfCRTDd2_F145I-mediated PPQ transport (300 µM PPQ, 25 µM CQ): 115.11 pmol oocyte-1 h-1 and 88.35 pmol oocyte-1 h-1 and 102.98 pmol oocyte-1 h-1 | PfCRTDd2_F145I-mediated PPQ transport (300 µM PPQ, 50 µM CQ): 85.96 pmol oocyte-1 h-1 and 103.73 pmol oocyte-1 h-1 and 93.02 pmol oocyte-1 h-1 | PfCRTDd2_F145I-mediated PPQ transport (300 µM PPQ, 125 µM CQ): 84.14 pmol oocyte-1 h-1 and 103.07 pmol oocyte-1 h-1 and 81.24 pmol oocyte-1 h-1 | PfCRTDd2_F145I-mediated PPQ transport (300 µM PPQ, 200 µM CQ): 75.68 pmol oocyte-1 h-1 and 80.62 pmol oocyte-1 h-1 and 99.18 pmol oocyte-1 h-1 | PfCRTDd2_F145I-mediated PPQ transport (300 µM PPQ, 400 µM CQ): 77.19 pmol oocyte-1 h-1 and 102 pmol oocyte-1 h-1 | PfCRTDd2_F145I-mediated PPQ transport (400 µM PPQ, 0 µM CQ): 130.32 pmol oocyte-1 h-1 and 101.99 pmol oocyte-1 h-1 | PfCRTDd2_F145I-mediated PPQ transport (400 µM PPQ, 25 µM CQ): 115.19 pmol oocyte-1 h-1 and 112.21 pmol oocyte-1 h-1 and 107.93 pmol oocyte-1 h-1 | PfCRTDd2_F145I-mediated PPQ transport (400 µM PPQ, 50 µM CQ): 86.8 pmol oocyte-1 h-1 and 110.06 pmol oocyte-1 h-1 and 116.13 pmol oocyte-1 h-1 | PfCRTDd2_F145I-mediated PPQ transport (400 µM PPQ, 125 µM CQ): 93.73 pmol oocyte-1 h-1 and 100.31 pmol oocyte-1 h-1 and 96.89 pmol oocyte-1 h-1 | PfCRTDd2_F145I-mediated PPQ transport (400 µM PPQ, 200 µM CQ): 75.94 pmol oocyte-1 h-1 and 96.5 pmol oocyte-1 h-1 and 106.38 pmol oocyte-1 h-1 | PfCRTDd2_F145I-mediated PPQ transport (400 µM PPQ, 400 µM CQ): 105.94 pmol oocyte-1 h-1 and 73.74 pmol oocyte-1 h-1 | PfCRTDd2_F145I-mediated PPQ transport (500 µM PPQ, 0 µM CQ): 124.15 pmol oocyte-1 h-1 and 149.83 pmol oocyte-1 h-1 | PfCRTDd2_F145I-mediated PPQ transport (500 µM PPQ, 25 µM CQ): 134.09 pmol oocyte-1 h-1 and 105.12 pmol oocyte-1 h-1 and 107.54 pmol oocyte-1 h-1 | PfCRTDd2_F145I-mediated PPQ transport (500 µM PPQ, 50 µM CQ): 102.67 pmol oocyte-1 h-1 and 147.39 pmol oocyte-1 h-1 and 78.85 pmol oocyte-1 h-1 | PfCRTDd2_F145I-mediated PPQ transport (500 µM PPQ, 125 µM CQ): 105.59 pmol oocyte-1 h-1 and 76.21 pmol oocyte-1 h-1 and 122.33 pmol oocyte-1 h-1 | PfCRTDd2_F145I-mediated PPQ transport (500 µM PPQ, 200 µM CQ): 62.06 pmol oocyte-1 h-1 and 101.24 pmol oocyte-1 h-1

Source: paper PMC10281575, “PfCRT mutations conferring piperaquine resistance in falciparum malaria shape the kinetics of quinoline drug binding and transport” (PLOS Pathogens, 2023)
